Experimental data taken from US6727246B2, “1-(aminoalkyl)-3-sulfonylindole-and-indazole derivatives as 5-hydroxytryptamine-6 ligands” (Wyeth, priority 2002, dated 2004).
pKi: −log10 of the molar value. Like-named read-outs stand apart in the source and are kept apart here.

Columns and labels:
[1] = target: T1, human cloned 5-HT6 receptors (Homo sapiens, UniProt P50406); experiment: 5-HT6 binding affinity, [3H]-LSD displacement on membranes of Hela cells expressing the cloned receptor; details: for inhibition at 1 µM: read-out: % Inhibition at 1 μM
T1 construct: expressed in transfected cells; host or cells: Hela cells (membrane preparation)
T1 sequence (P50406 whole entry): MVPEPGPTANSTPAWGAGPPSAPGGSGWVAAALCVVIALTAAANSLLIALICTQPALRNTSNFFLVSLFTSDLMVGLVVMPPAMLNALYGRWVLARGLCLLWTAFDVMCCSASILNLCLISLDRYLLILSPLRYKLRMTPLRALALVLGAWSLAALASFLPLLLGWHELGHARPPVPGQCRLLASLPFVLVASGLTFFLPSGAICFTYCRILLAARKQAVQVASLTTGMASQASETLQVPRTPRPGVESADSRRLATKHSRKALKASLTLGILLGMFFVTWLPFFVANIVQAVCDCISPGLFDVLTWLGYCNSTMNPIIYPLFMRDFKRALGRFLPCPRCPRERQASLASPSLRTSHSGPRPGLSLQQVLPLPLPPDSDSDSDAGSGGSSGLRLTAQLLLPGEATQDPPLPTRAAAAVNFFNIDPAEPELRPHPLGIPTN

[2] = [3H]-LSD 3.0 nM, Hela cell membranes, 120 min at room temperature, read-out: 5-HT6 Binding Ki

Compound `CN(C)CCn1cc(S(=O)(=O)c2ccccc2)c2c(F)cccc21` [Example 9, N,N-dimethyl-N-{2-[4-fluoro-3-(phenylsulfonyl)-1H-indol-1-yl]ethyl}amine] has a pKi [1] of 7.01 and a melting point of 201 to 203 °C.
With `O=S(=O)(Cc1ccccc1)c1cn(CCN2CCCCC2)c2ccccc12` [Example 32] the pKi [1, 2] was 6.19 and the melting point was 223 to 225 °C.
In the case of `CN(C)CCn1cc(S(=O)(=O)c2ccccc2)c2cccc(C#N)c21` [Example 14, 1-[2-(dimethylamino)ethyl]-3-(phenylsulfonyl)-1H-indole-7-carbonitrile], the pKi [1, 2] was 6.12, the inhibition at 1 µM [1] was 35% and the melting point was 134 to 136 °C.
`CN(C)CCCCn1cc(S(=O)(=O)c2ccccc2)c2ccccc21` [Example 7] gave a pKi [1, 2] of 6.80 and a melting point of 184 to 187 °C.
With `CN(C)CCCn1cc(S(=O)(=O)c2ccccc2)c2ccccc21` [Example 15, N,N-dimethyl-3-[3-(phenylsulfonyl)-1H-indol-1-yl]propan-1-amine] the pKi [1, 2] was 6.77 and the melting point was 207 to 209 °C.
For `COc1cccc2c1c(S(=O)(=O)c1ccccc1)cn2CCN(C)C` [Example 53], the pKi [1, 2] was 6.82 and the melting point was 238 to 240 °C.
In the case of `NCCCn1cc(S(=O)(=O)c2ccccc2)c2ccccc21` [Example 5, 3-[3-(phenylsulfonyl)-1H-indol-1-yl]propan-1-amine], the pKi [1, 2] was 7.04.
For `CN(C)CCn1cc(S(=O)(=O)c2ccccc2)c2ccc(Cl)cc21` [Example 51], the pKi [1] was 7.38 and the melting point was 104 to 106 °C.
Compound `CN(C)CCn1cc(S(=O)(=O)c2ccccc2)c2ccc(F)cc21` [Example 50] has a pKi [1] of 7.34 and a melting point of 100 to 102 °C.
In the case of `COc1ccc2c(c1)c(S(=O)(=O)c1ccccc1)cn2CCNCc1ccccc1` [Example 39], the pKi [1, 2] was 7.23.
With `COc1ccc2c(S(=O)(=O)c3ccccc3)cn(CCN(C)C)c2c1` [Example 48] the pKi [1] was 7.64 and the melting point was 121 to 122 °C.
Work on `Cc1ccc2c(S(=O)(=O)c3ccccc3)cn(CCN(C)C)c2c1` [Example 49] yielded a pKi [1, 2] of 7.29 and a melting point of 131 to 132 °C.
`Cc1ccc(S(=O)(=O)c2cn(CCN(C)C)c3ccccc23)cc1` [Example 52] gave a pKi [1] of 7.24 and a melting point of over 250 °C.
With `CN(C)CCn1cc(S(=O)(=O)c2ccccc2)c2c(Cl)cccc21` [Example 11, N,N-dimethyl-N-{2-[4-chloro-3-(phenylsulfonyl)-1H-indol-1-yl]-ethyl}amine] the pKi [1, 2] was 6.87 and the melting point was 209 to 211 °C.
With `CN(C)CCn1cc(S(=O)(=O)c2ccccc2)c2ccccc21` [Example 3] the pKi [1] was 7.70.
Compound `Cc1ccc(S(=O)(=O)c2cn(CCN)c3ccccc23)cc1` [Example 45] has a pKi [1, 2] of 7.60 and a melting point of 178 to 183 °C.
In the case of `Cc1cccc2c1c(S(=O)(=O)c1ccccc1)cn2CCN(C)C` [Example 12, N,N-dimethyl-N-{2-[4-methyl-3-(phenylsulfonyl)-1H-indol-1-yl]ethyl}amine], the pKi [1, 2] was 6.74 and the melting point was 220 to 221 °C.
`CCc1cccc2c(S(=O)(=O)c3ccccc3)cn(CCN(C)C)c12` [Example 13, N,N-dimethyl-N-{2-[7-ethyl-3-(phenylsulfonyl)-1H-indol-1-yl]ethyl}amine] showed a pKi [1] of 7.19 and a melting point of 213 to 216 °C.
Compound `NCCn1cc(S(=O)(=O)c2ccccc2)c2ccccc21` [Example 40, 2-[3-(phenylsulfonyl)-1H-indol-1-yl]ethylamine] has a pKi [1, 2] of 7.60 and a melting point of 220 to 221 °C.
Compound `CN(C)CCn1cc(S(=O)(=O)c2cccc(F)c2)c2ccccc21` [Example 25] has a pKi [1, 2] of 7.89 and a melting point of 210 to 211 °C.
In the case of `COc1ccc2c(c1)c(S(=O)(=O)c1ccccc1)cn2CCN` [Example 21, 2-[5-methoxy-3-(phenylsulfonyl)-1H-indol-1-yl]ethylamine], the inhibition at 1 µM ([1]; 1 μM test compound, displacement of [3H]-LSD) was 86% and the melting point was 198 to 201 °C.
Compound `CN(C)CCn1nc(S(=O)(=O)c2cccc(F)c2)c2ccccc21` [Example 37] has a pKi [1, 2] of 7.26 and a melting point of 192 to 194 °C.
Work on `CN(C)CCn1cc(S(=O)(=O)c2ccccc2OC(F)(F)F)c2ccccc21` [Example 57] yielded a pKi [1, 2] of 7.80.
`CN(C)CCn1cc(S(=O)(=O)c2ccccc2)c2cccc(Cl)c21` [Example 10, N,N-dimethyl-N-{2-[7-chloro-3-(phenylsulfonyl)-1H-indol-1-yl]-ethyl}amine] gave a pKi [1, 2] of 7.01 and a melting point of 240 to 242 °C.
Work on `Cn1ccnc1S(=O)(=O)c1cn(CCN)c2ccccc12` [Example 46] yielded a pKi [1, 2] of 6.24 and a melting point of 158 to 160 °C.
With `NCCn1cc(S(=O)(=O)c2ccccc2)c2ccc(Cl)cc21` [Example 44, 2-[6-chloro-3-(phenylsulfonyl)-1H-indol-1-yl]ethylamine] the pKi [1, 2] was 6.85 and the melting point was 200 to 206 °C.
In the case of `CN(C)CCn1cc(S(=O)(=O)c2ccccc2)c2cc(C#N)ccc21` [Example 8, 1-[2-(dimethylamino)ethyl]-3-(phenylsulfonyl)-1H-indole-5-carbonitrile], the pKi [1, 2] was 7.35 and the melting point was 280 °C (dec.).
`NCCn1nc(S(=O)(=O)c2ccccc2)c2ccccc21` [Example 36, 2-[3-(phenylsulfonyl)-1H-indazol-1-yl]ethylamine] showed a pKi [1, 2] of 7.36 and a melting point of 208 to 209 °C.
Compound `CN(C)CCn1nc(S(=O)(=O)c2ccccc2)c2ccccc21` [Example 35] has a pKi [1, 2] of 7.13.
`COc1cccc2c(S(=O)(=O)c3ccccc3)cn(CCN(C)C)c12` [Example 23] gave a pKi [1] of 7.60 and a melting point of 236 to 238 °C.
For `Cc1c(S(=O)(=O)c2ccccc2)c2ccccc2n1CCN(C)C` [Example 24, N,N-dimethyl-N-{2-[2-methyl-3-(phenylsulfonyl)-1H-indol-1-yl]ethyl}amine], the pKi [1] was 7.74 and the melting point was 258 to 260 °C.
Compound `CN(C)CCn1cc(S(=O)(=O)Cc2ccccc2)c2ccccc21` [Example 31] has a pKi [1, 2] of 6.00 and a melting point of 219 to 220 °C.
Work on `CN(C)CCn1cc(S(=O)(=O)c2cccc3ccccc23)c2ccccc21` [Example 26] yielded a pKi [1, 2] of 8.40 and a melting point of 239 to 241 °C.
With `CN(C)CCn1cc(S(=O)(=O)c2ccccc2)c2ccc(-c3ccccc3)cc21` [Example 27] the pKi [1, 2] was 7.64.
`CN(C)CCn1cc(S(=O)(=O)c2c(Cl)nc3sccn23)c2ccccc21` [Example 58] showed a pKi [1, 2] of 8.22 and a melting point of 138 to 140 °C.
For `CN(C)CCn1cc(S(=O)(=O)c2ccccc2)c2cc(F)ccc21` [Example 47], the pKi [1] was 7.36 and the melting point was 103 to 104 °C.
Compound `COc1ccc2c(c1)c(S(=O)(=O)c1ccccc1)cn2CCN(C)C` [Example 20] has a pKi [1] of 7.64, an inhibition at 1 µM [1] of 88% and a melting point of 214 to 216 °C.
